# Assay results as given in patent publication US8318217B2, “Compositions comprising an anti-inflammatory blend” (Johnson & Johnson Consumer Companies, Inc., priority 2009, dated 2012).
# Read-outs that look alike come from different tables or passages of the source.
# What was measured:
# [1] = tested on: NFκB; assay: NFκB-INHIBITION TEST (NF-κB gene reporter, TNFα-stimulated FB293 cells); format: cell-based, human; details: for NF-KB Activity (10 ug/ml): Tables 3a and 3b; for NF-κB Gene Reporter Activation (Luminescence, L): 24 h; for NF-κB inhibition (in words): summary of Table 1
# Description: As used herein, “NFκB-inhibitor” means a compound that inhibits the cell transcription factor nuclear kappa-B (NFκB). […] The compound need not provide the recited Percent NFκB Inhibition at all concentrations from 1 microgram per milliliter to 100 micrograms per milliliter, but provides the recited Percent NFκB Inhibition at least one concentration in this range.
# The NFκB-INHIBITION TEST is conducted in the following manner. FB293 cells, a stable transfected human epithelial cell line containing the gene reporter for NF-κB are used. They may be obtained from, e.g., Panomics (Fremont, Calif.). FB293 are plated at a density of 5×10^4 cells/mL in a suitable medium, e.g., Dulbecco's modified Eagle's medium (DMEM) supplemented with 10% fetal bovine serum (Invitrogen, San Diego, Calif.). The FB293 cells are stimulated with 100 ng/mL of Tumor Necrosis Factor-α (TNFα, available from Sigma-Aldrich of St Louis, Mo.) in the presence of the test sample. Separately, a control sample is tested wherein no test sample is applied. Following a 24-hour incubation at 37° C. with 5% CO2, cells are lysed with 40 μl of reporter lysis buffer (Promega, Madison, Wis.). A 20-μl aliquot of the lysate is assayed using a luciferase assay kit (Promega) and counted for 10 s in a Lmax luminometer (Molecular Devices, Sunnyvale, Calif.) with the data represented as the relative light unit/second. Percent NFκB Inhibition of the test sample is calculated as: NFκB Inhibition=[1−(Lsample/Lcontrol)]*100 where Lsample is the luminescence of the sample and Lcontrol is the luminescence of the control.
# The NFκB-INHIBITION TEST described above was performed on test samples of Bay 11-7082 (Sigma-Aldrich, St. Louis, Mo.), Tetrahydrocurcuminoids CG (Sabinsa Corporation, Piscataway, N.J.), as well as various concentrations of 4-hexylresorcinol.
# The NFκB-INHIBITION TEST described above was performed on a series of substituted resorcinols each having a concentration of 10 μg/ml.
# [2] = tested on: IL-1α; assay: IL-1α ASSAY (IL-1α cytokine release in KB cells); format: cell-based, human; details: for Increase in IL-1α over untreated control (normalized): normalized to 4-hexylresorcinol 20 μg/mL
# Description: An IL-1α ASSAY was performed on a plurality of agents to investigate the release of the pro-inflammatory mediator, IL-1α cytokine, in human epithelial cells.
# (§1) The IL-1α ASSAY was conducted as follows. KB cells were obtained from ATCC (ATCC#CCL-17, Manassas, Va.) and were plated in 96-well tissue culture treated plates at a density of 5000 cells/well in Dulbecco's modified Eagle's medium (DMEM) supplemented with 10% fetal bovine serum (Invitrogen Corp., San Diego, Calif.). After 48 hours, cells were treated with the agents described below at indicated concentrations for 24 hours, following which supernatants were collected and analyzed for IL-1α cytokine release using commercially available kits (Millipore Corp., Billerica, Mass.).
# Further IL-1α ASSAYS as described in Example 5 were performed. For ease of comparison, reported increases in IL-1α for 4-hexylresorcinol, phloretin, and combinations thereof were normalized to 4-hexylresorcinol (20 μg/mL, Comparative Example 2). Reported increases in IL-1α for tetrahydrocurcuminoids, feverfew, and combinations thereof were normalized to tetrahydrocurcuminoids (20 μg/mL, Comparative Example 3).
# Further IL-1α ASSAYS as described in Example 5 were performed. For ease of comparison, reported increases in IL-1α were normalized to 4-hexylresorcinol (20 μg/mL, Comparative Example 2).
# [3] = tested on: Interleukin-2; assay: ANTI-INFLAMMATORY ASSAY (cytokine production by PHA-stimulated human lymphocytes); format: cell-based; details: PHA 10 μg/mL stimulated human leukocytes, 48 h
# Description: The ANTI-INFLAMMATORY ASSAY assesses the ability of an agent to reduce the production of cytokines by human lymphocytes stimulated with the T-cell receptor (TCR) activating agent phytohaemagglutinin (PHA), and is conducted in the following manner. Human leukocytes are collected from a healthy adult […] via leukopheresis, and adjusted to a density of 1×10^6 cells/mL in serum free lymphocyte growth medium (ExVivo-15, Biowhittaker, Walkersville, Md.). PBLs are stimulated with 10 μg/mL PHA in the presence or absence of test samples following published methods (Hamamoto Y., et al. Exp Dermatol 2:231-235, 1993). Following a 48-hour incubation at 37° C. with 5% CO2, the supernatant is removed and evaluated for cytokine content using commercially available multiplex cytokine detection kit.
# [4] = tested on: IL-8; assay: IL-8 ASSAY (IL-8 cytokine release in KB cells); format: cell-based, human
# Description: as §1
# An IL-8 ASSAY was performed on a series of compositions using the method described in Example 5, except that the cytokine analyzed for was IL-8. Percent reduction in IL-8 was calculated for each sample. For samples containing a combination of an NF-κB inhibitor and an anti-inflammatory compound, the percent reduction in IL-8 relative to the percent reduction in IL-8 for the corresponding dose of anti-inflammatory compound is reported.
# [5] = Homo sapiens, read-out: Percent NF-κB Inhibition
# [6] = Homo sapiens, 10 μg/ml, series of substituted resorcinols, Table 2, read-out: Percent NF-κB Inhibition
# [7] = Homo sapiens, read-out: Percent NFκB Inhibition
molecule,measurement,setting,value
"O=Nc1ccc(O)c(N=O)c1O [2,4-Dinitrosorcinol]",inhibition at 10 µg/mL,[1]; [5],51.8%
Madecassoside [reference compound],NF-KB Activity (10 ug/ml),[1],0%
same,Increase in IL-1α over untreated control (normalized),"[2]; single agent 10 μg/mL, Table 7",43.02
same,Increase in IL-1α over untreated control (normalized),"[2]; single agent 50 μg/mL, Table 7",41.59
same,Increase in IL-1α over untreated control (normalized),"[2]; single agent 100 μg/mL, Table 7",44.24
same,Anti-Inflammatory Activity (IC50 ug/ml),[3],77.3 µg/mL
CC1CCCC(O)CCCCCc2cc(O)cc(O)c2C(=O)O1 (stereo not drawn) [β-Zearalanol],inhibition at 10 µg/mL,[1]; [5],76.6%
CCCCCCCCCCCCc1ccc(O)cc1O [4-Dodecylresorcinol],inhibition at 10 µg/mL,[1]; [6],20.9%
CCCCCCCCCCCC1c2cc(c(O)cc2O)C(CCCCCCCCCCC)c2cc(c(O)cc2O)C(CCCCCCCCCCC)c2cc(c(O)cc2O)C(CCCCCCCCCCC)c2cc1c(O)cc2O (stereo not shown) [C-Undecylcalix[4]-resorcinarene],Percent NF-κB Inhibition,"[1]; 10 μg/ml, series of substituted resorcinols, Table 2",4.87%
"COc1cccc(O)c1 [3-Methoxyphenol, reference compound]",inhibition at 10 µg/mL,[1]; [6],0%
Oc1ccc(Cl)c(O)c1 [4-Chloroesorcinol],inhibition at 10 µg/mL,[1]; [6],51.6%
O=C(CCc1ccc(O)cc1)c1c(O)cc(O)cc1O [Phloretin],NF-KB Activity (10 ug/ml),[1],0%
same,Increase in IL-1α over untreated control (normalized),"[2]; single agent 10 μg/mL, Table 6",3.82
same,Increase in IL-1α over untreated control (normalized),"[2]; single agent 50 μg/mL, Table 6",2.39
same,Increase in IL-1α over untreated control (normalized),"[2]; single agent 100 μg/mL, Table 6",3.34
same,IC50,"[3]; Leukocyte, read-out: Anti-Inflammatory Activity (IC50 ug/ml)",19.9 µg/mL
CCCCCCc1ccc(O)cc1O [4-Hexylresorcinol],"NF-κB Gene Reporter Activation (Luminescence, L)","[1]; 1 μg/ml, TNFα 100 ng/ml stimulated FB293 cells",106.1 ± 1.9
same,"NF-κB Gene Reporter Activation (Luminescence, L)","[1]; 5 μg/ml, TNFα 100 ng/ml stimulated FB293 cells",55.1 ± 1.7
same,"NF-κB Gene Reporter Activation (Luminescence, L)","[1]; 10 μg/ml, TNFα 100 ng/ml stimulated FB293 cells",29.3 ± 9.2
same,"NF-κB Gene Reporter Activation (Luminescence, L)","[1]; 50 μg/ml, TNFα 100 ng/ml stimulated FB293 cells, relative light unit/second per method",9.3 ± 0.9
same,inhibition at 10 µg/mL,[1]; [5],92.4%
same,inhibition at 1 µg/mL,[1]; [7],1.9%
same,inhibition at 5 µg/mL,[1]; [7],50.9%
same,inhibition at 10 µg/mL,[1]; [7],72.9%
same,inhibition at 50 µg/mL,[1]; [7],91.4%
same,NF-κB inhibition (in words),[1],substantial reduction in NFκB activation
same,Mean of IL-1α Release,"[2]; 20 μg/mL, 24 h, KB cells, untreated 0.72",21.34 pg/mL
same,Increase in IL-1α over untreated control (normalized),"[2]; single agent 20 μg/mL, Table 6",100
same,Increase in IL-1α over untreated control (normalized),"[2]; single agent 20 μg/mL, Table 7",100
same,release of cytokine IL-1α (in words),[2]; summary of Table 5,can increase the release of cytokine IL-1α
same,Mean of IL-8 Release,"[4]; single agent 10 μg/mL, untreated 84.46, Table 9",73.23 pg/mL
same,Mean of IL-8 Release,"[4]; single agent 20 μg/mL, untreated 46.05, Table 8",14.58 pg/mL
same,Mean of IL-8 Release,"[4]; single agent 20 μg/mL, untreated 84.46, Table 9",27.05 pg/mL
C=CC(C)(C)c1cc(/C=C/C(=O)c2ccc(O)cc2)c(OC)cc1O [Licochalcone],NF-KB Activity (10 ug/ml),[1],0%
same,Anti-Inflammatory Activity (IC50 ug/ml),[3],54.1 µg/mL
C[C@H]1CCC[C@@H](O)CCC/C=C/c2cc(O)cc(O)c2C(=O)O1 [β-Zearalenol],inhibition at 10 µg/mL,[1]; [5],87.1%
CC1CCCC(=O)CCCCCc2cc(O)cc(O)c2C(=O)O1 (stereo not shown) [Zearalanone],inhibition at 10 µg/mL,[1]; [5],51%
"CCC(=O)c1ccc(O)cc1O [2′,4′-Dihydroxypropiophenone]",inhibition at 10 µg/mL,[1]; [6],-0.7%
"COc1cccc(OC)c1 [1,3-Dimethoxybenzene, reference compound]",inhibition at 10 µg/mL,[1]; [6],-1.7%
Oc1ccc(CCc2ccccc2)c(O)c1 [Phenethylresorinol],inhibition at 10 µg/mL,[1]; [6],31.8%
"O=C(O)/C=C/c1ccc(O)cc1O [2,4-DIHYDROXYCINNAMIC Acid]",inhibition at 10 µg/mL,[1]; [6],-1.7%
CCCCCCCCc1ccc(O)cc1O [4-Octylresorcinol],inhibition at 10 µg/mL,[1]; [6],99.5%
"Cc1ccc(S(=O)(=O)/C=C/C#N)cc1 [Bay 11-7082, (E)-3-(4-methylphenylsulfonyl)-2-propenenitrile, reference compound]","NF-κB Gene Reporter Activation (Luminescence, L)","[1]; 25 uM, FB293 cells",11.3 ± 5.6
same,inhibition at 25 µM,"[1]; Homo sapiens, 25 uM, Table 1, read-out: Percent NFκB Inhibition",89.5%
same,NF-κB inhibition (in words),[1],strong NF-κB inhibition
CCCCCC(=O)c1ccc(O)cc1O [4-Caproylresorcinol],inhibition at 10 µg/mL,[1]; [6],10.2%
